{"source": "patent US20230391729A1", "about": "“SUCCINATE SALTS OF N-(3-(4-(3-(DIISOBUTYLAMINO)PROPYL)PIPERAZIN-1-YL)PROPYL)-1H-BENZO[D]IMIDAZOL-2-AMINE, PREPARATION THEREOF AND USE OF THE SAME” (ALZPROTECT, priority 2020, published 2023)", "format_in_all_cases": "physicochemical", "key": {"[1]": {"assay": "Polymorphic form stability of di-sulphate salt upon drying at 50° C."}, "[2]": {"assay": "Storage stability of free base, di-sulphate salt and its aqueous solutions (background)", "conditions": "for stability of aqueous solution: glass vials, no preservative"}, "[3]": {"assay": "7-day stability tests of the salt (XRPD, HPLC purity)", "conditions": "50° C., 80° C. and ambient light", "experimental": "7-day stability tests were carried out as follows: 15 mg of salt was weighed into x3 2 mL vials. The vials were then placed at 40° C./75% RH, 80° C. and under ambient light; after 1 week, the solids were analysed by XRPD and HPLC purity (method A)."}, "[4]": {"assay": "Solubility assessment in unbuffered water and pH buffers", "conditions": "thermodynamic from solid", "experimental": "100 μL of the appropriate buffer was added to form a slurry."}, "[5]": {"assay": "Dynamic vapour sorption (DVS)", "experimental": "Approximately 10-20 mg of sample was placed into a mesh vapour sorption balance pan and loaded into an Intrinsic dynamic vapour sorption balance by Surface Measurement Systems. The sample was subjected to a ramping profile from 40-90% relative humidity (RH) at 10% increments, maintaining the sample at each step until a stable weight had been achieved (dm/dt 0.004%, minimum step length 30 minutes, maximum step length 500 minutes) at 25° C. After completion of the sorption cycle, the sample was dried using the same procedure to 0% RH and then a second sorption cycle back to 40% RH. Two cycles were performed. The weight change during the sorption/desorption cycles were plotted, allowing for the hygroscopic nature of the sample to be determined. XRPD analysis was then carried out on any solid retained."}, "[6]": {"assay": "Water solubility of di-sulphate salt (background)"}}}
{"smiles": "CC(C)CN(CCCN1CCN(CCCNc2nc3ccccc3[nH]2)CC1)CC(C)C.O=S(=O)(O)O.O=S(=O)(O)O", "note": "[Form A, N-(3-(4-(3-(diisobutylamino)propyl)piperazin-1-yl)propyl)-1H-benzo[d]imidazol-2-amine di-sulphate salt]", "values": [{"measurement": "crystalline form stability upon drying", "setting": "[1]; di-sulphate salt", "result": "converts back to polymorphic Form B"}]}
{"smiles": "CC(C)CN(CCCN1CCN(CCCNc2nc3ccccc3[nH]2)CC1)CC(C)C", "note": "[free base, N-(3-(4-(3-(diisobutylamino)propyl)piperazin-1-yl)propyl)-1H-benzo[d]imidazol-2-amine]", "values": [{"measurement": "long term stability", "setting": "[2]", "result": "long term stability issues due to oxidative degradation"}]}
{"smiles": "CC(C)CN(CCCN1CCN(CCCNc2nc3ccccc3[nH]2)CC1)CC(C)C.O=C(O)CCC(=O)O.O=C(O)CCC(=O)O.O=C(O)CCC(=O)O", "note": "[tris-succinate salt Form 2, N-(3-(4-(3-(diisobutylamino)propyl)piperazin-1-yl)propyl)-1H-benzo[d]imidazol-2-amine tris-succinate salt]", "values": [{"measurement": "7-day stability", "setting": "[3]", "result": "stable"}, {"measurement": "solubility", "setting": "[4]; pH 1.2, simulated gastric fluid", "result": "> 123", "unit": "mg/mL"}, {"measurement": "solubility", "setting": "[4]; pH 4.5, aqueous buffer", "result": "> 92.4", "unit": "mg/mL"}, {"measurement": "solubility", "setting": "[4]; pH 6.8, aqueous buffer", "result": "> 95.7", "unit": "mg/mL"}, {"measurement": "Post-DVS XRPD crystalline form", "setting": "[5]; after DVS cycle", "result": "remain as tris-succinate salt Form 2"}, {"measurement": "DVS weight uptake", "setting": "[5]; at 70% RH, 25° C.", "result": "ca. +0.1 wt. %"}, {"measurement": "DVS water uptake in equivalents", "setting": "[5]; up to 90% RH", "result": "approximately 4.3 equiv. water"}, {"measurement": "DVS weight increase", "setting": "[5]; up to 90% RH, 25° C.", "result": "ca. +9.92 wt. %"}, {"measurement": "hygroscopicity", "setting": "[5]; up to 90% relative humidity", "result": "not hygroscopic"}]}
{"smiles": "CC(C)CN(CCCN1CCN(CCCNc2nc3ccccc3[nH]2)CC1)CC(C)C.O=S(=O)(O)O.O=S(=O)(O)O", "note": "[di-sulphate salt, N-(3-(4-(3-(diisobutylamino)propyl)piperazin-1-yl)propyl)-1H-benzo[d]imidazol-2-amine di-sulphate]", "values": [{"measurement": "solubility", "setting": "[6]", "result": "> 100", "unit": "mg/mL"}, {"measurement": "stability of aqueous solution", "setting": "[2]; 5° C.", "result": "up to 18 months"}, {"measurement": "stability to regular storage conditions", "setting": "[2]; 15-25° C.", "result": "at least 5 years"}, {"measurement": "stability of aqueous solution", "setting": "[2]; 25° C./60% RH", "result": "up to 18 months"}, {"measurement": "stability of aqueous solution", "setting": "[2]; 40° C./75% RH", "result": "up to 6 months"}]}
{"smiles": "CC(C)CN(CCCN1CCN(CCCNc2nc3ccccc3[nH]2)CC1)CC(C)C.O=S(=O)(O)O.O=S(=O)(O)O", "note": "[Form B, N-(3-(4-(3-(diisobutylamino)propyl)piperazin-1-yl)propyl)-1H-benzo[d]imidazol-2-amine di-sulphate]", "values": [{"measurement": "crystalline form stability upon drying", "setting": "[1]; di-sulphate", "result": "partially loses its crystallinity"}]}
